This assay deals with P388 leukemia ip, CD2F1 mice, survival T/C. Nature of the assay: NCI In Vivo Anticancer Drug Screen. Data for tumor model P388 Leukemia (intraperitoneal) in CD2F1 (CDF1) mice. Conditions: endpoint: median survival time, higher = longer survival. Put shortly:
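Mice carrying the transplanted tumor received test compound or vehicle. Survival was recorded in each group, and the value is the treated-group measurement divided by that of the vehicle-treated control group.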

[1] abbreviates: dose: 12.5 mg/kg/injection, schedule: Q01DX005 (ip), vehicle: Klucel (hydroxypropylcellulose) (HPC).
The mark [2] stands for this setting: dose: 25.0 mg/kg/injection, schedule: Q01DX005 (ip), vehicle: Klucel (hydroxypropylcellulose) (HPC).
The mark [3] stands for this setting: dose: 50.0 mg/kg/injection, schedule: Q01DX005 (ip), vehicle: Klucel (hydroxypropylcellulose) (HPC).
[4] abbreviates: dose: 50.0 mg/kg/injection, schedule: Q01DX005 (ip), vehicle: saline with Tween-80.
The mark [5] stands for this setting: dose: 100.0 mg/kg/injection, schedule: Q01DX005 (ip), vehicle: saline with Tween-80.
[6] abbreviates: dose: 200.0 mg/kg/injection, schedule: Q01DX005 (ip), vehicle: saline with Tween-80.
The mark [7] stands for this setting: dose: 50.0 mg/kg/injection, schedule: Q01DX009 (ip), vehicle: saline with Tween-80.
Setting [8] is: dose: 100.0 mg/kg/injection, schedule: Q01DX009 (ip), vehicle: saline with Tween-80.
[9] abbreviates: dose: 200.0 mg/kg/injection, schedule: Q01DX009 (ip), vehicle: saline with Tween-80.
Where [10] appears, read: dose: 6.25 mg/kg/injection, schedule: Q01DX009 (ip), vehicle: saline.
The mark [11] stands for this setting: dose: 12.5 mg/kg/injection, schedule: Q01DX009 (ip), vehicle: saline.
Where [12] appears, read: dose: 50.0 mg/kg/injection, schedule: Q01DX009 (ip), vehicle: Klucel (hydroxypropylcellulose) (HPC).
[13] abbreviates: dose: 100.0 mg/kg/injection, schedule: Q01DX009 (ip), vehicle: Klucel (hydroxypropylcellulose) (HPC).
The mark [14] stands for this setting: dose: 200.0 mg/kg/injection, schedule: Q01DX009 (ip), vehicle: Klucel (hydroxypropylcellulose) (HPC).
[15] abbreviates: dose: 12.5 mg/kg/injection, schedule: Q01DX009 (ip), vehicle: saline with Tween-80.
The mark [16] stands for this setting: dose: 25.0 mg/kg/injection, schedule: Q01DX009 (ip), vehicle: saline with Tween-80.
The mark [17] stands for this setting: dose: 100.0 mg/kg/injection, schedule: Q01DX005 (ip), vehicle: Klucel (hydroxypropylcellulose) (HPC).
Where [18] appears, read: dose: 200.0 mg/kg/injection, schedule: Q01DX005 (ip), vehicle: Klucel (hydroxypropylcellulose) (HPC).

SMILES strings stand for the structures. Several values for one entry are separate records, joined by “and”; a condition that tells them apart may be missing. Identical values can stand only once. Inconclusive results and toxic doses are left out.

For `NC(CSCCNc1ccc([N+](=O)[O-])cc1[N+](=O)[O-])C(=O)O` (configuration not stated), the T/C (dose: 25.0 mg/kg/injection, schedule: Q04DX003 (ip), vehicle: Klucel (hydroxypropylcellulose) (HPC)) is 99 % of control; the T/C (dose: 50.0 mg/kg/injection, schedule: Q04DX003 (ip), vehicle: Klucel (hydroxypropylcellulose) (HPC)) is 100 % of control; the T/C (dose: 100.0 mg/kg/injection, schedule: Q04DX003 (ip), vehicle: Klucel (hydroxypropylcellulose) (HPC)) was 89 % of control; the T/C (dose: 200.0 mg/kg/injection, schedule: Q04DX003 (ip), vehicle: Klucel (hydroxypropylcellulose) (HPC)) was 99 % of control.
Turning to `C=C1C(=O)OC2/C=C(CO)/C=C\C3OC3(C)CC(OC(=O)/C(=C/C)CO)C12` (configuration not stated), the T/C is 106 % of control and 97 % of control under setting [1]; 99 % of control and 103 % of control and 116 % of control under setting [2]; 109 % of control and 111 % of control under setting [3].
Regarding `c1ccc(N2N=NC3CCOC32)cc1` (configuration not stated), the T/C under setting [4] is 94 % of control, the T/C under setting [5] was 102 % of control and the T/C under setting [6] was 106 % of control.
On to `O=C(N/N=C/c1ccccc1F)c1ccncc1`, for which the T/C reads like this: under setting [7], 98 % of control; under setting [8], 97 % of control; under setting [9], 104 % of control.
Consider `CN(C)CCNC1=C(Cl)C(=O)c2ccccc2C1=O`, for which the T/C by setting is: (dose: 3.13 mg/kg/injection, schedule: Q01DX009 (ip), vehicle: saline) 95 % of control; under setting [10], 94 % of control; under setting [11], 97 % of control.
In the case of `CCCCCCCCCCCCN(O)C(=O)c1ccccc1`, the T/C is, setting by setting: under setting [12], 99 % of control and 115 % of control; under setting [13], 104 % of control; under setting [14], 108 % of control and 96 % of control.
Consider `COc1ccc(-c2c[s+]cs2)cc1`, for which the T/C by setting is: (dose: 6.25 mg/kg/injection, schedule: Q01DX009 (ip), vehicle: distilled water + Tween-80) 103 % of control; (dose: 12.5 mg/kg/injection, schedule: Q01DX009 (ip), vehicle: distilled water + Tween-80) 112 % of control; (dose: 25.0 mg/kg/injection, schedule: Q01DX009 (ip), vehicle: distilled water + Tween-80) 100 % of control; (dose: 50.0 mg/kg/injection, schedule: Q01DX009 (ip), vehicle: distilled water + Tween-80) 116 % of control; (dose: 100.0 mg/kg/injection, schedule: Q01DX009 (ip), vehicle: distilled water + Tween-80) 109 % of control; (dose: 200.0 mg/kg/injection, schedule: Q01DX009 (ip), vehicle: distilled water + Tween-80) 93 % of control.
Turning to `CCCCCCCCCC(=O)C(=O)c1ccc(O)c(C)c1O`, the T/C runs as follows: under setting [12], 94 % of control; under setting [13], 94 % of control; under setting [14], 94 % of control.
Turning to `COC1/C=C/OC2(C)Oc3c(C)c(O)c4c(O)c(c(/C=N/N5CC(C)N(Cc6ccccc6)C(C)C5)c(O)c4c3C2=O)NC(=O)C(C)=C/C=C/C(C)C(O)C(C)C(O)C(C)C(OC(C)=O)C1C` (configuration not stated), the T/C is 113 % of control under setting [15]; 109 % of control under setting [16]; 118 % of control and 124 % of control under setting [7]; 114 % of control under setting [8].
Regarding `CC(=O)N1c2ccccc2Sc2ccc3ccc(C(=O)CCl)cc3c21`, the T/C under setting [8] was 115 % of control.
On to `O=C(CC(O)c1cccnc1)CC(O)c1cccnc1` (configuration not stated), for which the T/C runs as follows: (dose: 60.0 mg/kg/injection, schedule: Q01DX005 (ip), vehicle: saline) 100 % of control; (dose: 120.0 mg/kg/injection, schedule: Q01DX005 (ip), vehicle: saline) 114 % of control; (dose: 240.0 mg/kg/injection, schedule: Q01DX005 (ip), vehicle: saline) 114 % of control.
For `[Cl][Sn]([Cl])([c]1ccccc1)[c]1ccccc1.c1ccncc1.c1ccncc1`, the T/C reads like this: (dose: 3.12 mg/kg/injection, schedule: Q01DX009 (ip), vehicle: saline) 150 % of control; (dose: 6.25 mg/kg/injection, schedule: Q01DX009 (ip), vehicle: Klucel (hydroxypropylcellulose) (HPC)) 153 % of control and 166 % of control; under setting [10], 156 % of control; (dose: 12.5 mg/kg/injection, schedule: Q01DX009 (ip), vehicle: Klucel (hydroxypropylcellulose) (HPC)) 155 % of control and 180 % of control; under setting [15], 151 % of control.
On to `O=C(Nc1ccc([N+](=O)[O-])cc1)Nc1ccc([N+](=O)[O-])cc1` (tested in a mixture with another compound), for which the T/C was 103 % of control under setting [13]; 100 % of control under setting [8]; 117 % of control under setting [14]; 100 % of control under setting [9]; 117 % of control (dose: 400.0 mg/kg/injection, schedule: Q01DX009 (ip), vehicle: Klucel (hydroxypropylcellulose) (HPC)); 104 % of control (dose: 400.0 mg/kg/injection, schedule: Q01DX009 (ip), vehicle: saline with Tween-80).
Regarding `CCOS(=O)(=O)c1ccc([N+](=O)[O-])cc1`, the T/C is 95 % of control under setting [11]; 100 % of control (dose: 25.0 mg/kg/injection, schedule: Q01DX009 (ip), vehicle: saline); 98 % of control (dose: 50.0 mg/kg/injection, schedule: Q01DX009 (ip), vehicle: saline); 100 % of control and 90 % of control (dose: 100.0 mg/kg/injection, schedule: Q01DX009 (ip), vehicle: saline).
Regarding `CN1C(=O)C(=O)N(CCCN2CCN(CCCN3C(=O)C(=O)N(C)C3=O)CC2)C1=O`, the T/C under setting [12] was 104 % of control, the T/C under setting [13] is 106 % of control and the T/C under setting [14] was 98 % of control.
With `CCCCCCCN(CCCCCCC)CC(O)c1ccc2ccc3ccc(Cl)cc3c2c1` (configuration not stated), the T/C is 96 % of control under setting [4], 96 % of control under setting [5] and 104 % of control under setting [6].
For the compound `CC(=O)SCC(C)C(=O)N1CCCC1C(=O)NC(Cc1ccccc1)C(=O)O` (configuration not stated), the T/C under setting [3] is 110 % of control, the T/C under setting [17] was 98 % of control and the T/C under setting [18] is 104 % of control.
On to `COc1ccc(/C=N/N2CN(C(C)C(=O)O)B(NC34CC5CC(CC(C5)C3)C4)N=C2N)cc1OC` (configuration not stated), for which the T/C runs as follows: (dose: 60.0 mg/kg/injection, schedule: Q01DX005 (ip), vehicle: saline with Tween-80) 104 % of control; (dose: 120.0 mg/kg/injection, schedule: Q01DX005 (ip), vehicle: saline with Tween-80) 99 % of control; (dose: 240.0 mg/kg/injection, schedule: Q01DX005 (ip), vehicle: saline with Tween-80) 93 % of control.
As for `CN=C(NC)c1ccc(NC(=O)c2cc(C(=O)Nc3ccc(C(=NC)NC)cc3)cc([N+](=O)[O-])c2)cc1`, the T/C (dose: 6.25 mg/kg/injection, schedule: Q01DX005 (ip), vehicle: Klucel (hydroxypropylcellulose) (HPC)) is 107 % of control and the T/C under setting [1] is 119 % of control.
Regarding `Nc1nc(=S)c2ncn(C3OC(CO)CC3O)c2[nH]1` (configuration not stated), the T/C is 122 % of control (dose: 26.4 mg/kg/injection, schedule: Q04DX003 (ip), vehicle: saline) and 116 % of control (dose: 150.0 mg/kg/injection, schedule: Q04DX003 (ip), vehicle: saline).
Turning to `COC(=O)C1c2ccccc2CC(=O)N1NC(C)=O` (configuration not stated), the T/C under setting [12] was 104 % of control and the T/C under setting [13] is 101 % of control.
For `CC(C)OCCCN(Cn1c(=S)sc2ccccc21)Cn1c(=S)sc2ccccc21`, the T/C reads like this: under setting [12], 91 % of control; under setting [13], 89 % of control; under setting [14], 87 % of control.
Turning to `CN1C(=O)CC(Sc2ccccc2)c2cc(Cl)ccc21` (configuration not stated), the T/C reads like this: under setting [16], 99 % of control; under setting [7], 100 % of control; under setting [8], 97 % of control.
Turning to `CCCCC(CC)OC(=O)c1cccc(C(=O)O)c1` (configuration not stated), the T/C is 115 % of control (dose: 100.0 mg/kg/injection, schedule: Q01DX001 (ip), vehicle: saline with Tween-80) and 97 % of control (dose: 200.0 mg/kg/injection, schedule: Q01DX001 (ip), vehicle: saline with Tween-80).
`CC1CCCN2C(=O)CN(CCc3ccccc3)CC(=O)N12` (configuration not stated): the T/C by setting is: under setting [4], 99 % of control; under setting [5], 100 % of control; under setting [6], 100 % of control.
With `Cc1ccc(S(=O)(=O)OC2CN(S(=O)(=O)c3ccc(C)cc3)C2)cc1`, the T/C under setting [3] was 100 % of control, the T/C under setting [17] was 91 % of control and the T/C under setting [18] is 90 % of control.
Consider `CC(=C/c1cc(C)cc(=O)o1)/C=C/c1ccc(C)c(C)c1C`, for which the T/C under setting [1] is 97 % of control; the T/C under setting [2] is 97 % of control; the T/C under setting [3] was 99 % of control and 88 % of control and 90 % of control; the T/C under setting [18] is 86 % of control and 88 % of control.

(Values after PubChem BioAssay AID330 (DTP/NCI, 2004).)
